Measured values as given in patent US20230124862A1, “BISMUTH THIOL COMPOUNDS AND COMPOSITIONS AND METHODS OF TREATING MICROBIAL CO-INFECTIONS” (Microbion Corporation, priority 2020, published 2023).
≈ marks a conversion by molar mass, not a printed value. Where “and” joins values, the source holds several entries; their conditions need not be identical. Equal values may be shown once. Read-outs that look alike come from different tables or passages of the source.

What was measured:
[1] = system: S. aureus; assay: Broth microdilution MIC (Example 11); type: cell-based, Staphylococcus aureus; conditions: Staphylococcus aureus, ATCC 29213 / MSSA, S. aureus MMX 101 (ATCC 29213), QC, MSSA
[2] = system: Enterococcus spp.; assay: Broth microdilution MIC (Example 11); type: cell-based, E. faecalis, E. faecium
[3] = system: beta-hemolytic streptococci; assay: Broth microdilution MIC (Example 11); type: cell-based, S. pyogenes, S. agalactiae
[4] = system: S. aureus; conditions: S. aureus MMX 101 (ATCC 29213); cited from earlier work
[5] = system: S. pneumoniae; conditions: S. pneumoniae MMX 6837 (ATCC 49619); cited from earlier work
[6] = system: S. pneumoniae; assay: Broth microdilution MIC (Example 11); type: cell-based, Streptococcus pneumoniae
[7] = system: P. aeruginosa; assay: Checkerboard FIC/FICI assay; type: cell-based, Pseudomonas aeruginosa; conditions: for FICB / MICB: Meropenem in combination with BisEDT; for MIC: Pseudomonas aeruginosa, Meropenem alone (checkerboard with BisEDT), read-out: Drug B MIC
[8] = system: Burkholderia cepacia complex; assay: Checkerboard FIC/FICI assay; type: cell-based, Burkholderia spp.; conditions: for MIC: Meropenem alone, panel with BisEDT, read-out: Drug B MIC
[9] = system: Enterobacteriaceae; conditions: E. coli MMX 102 (ATCC 25922); CLSI QC ranges shown in parenthesis; cited from earlier work
[10] = system: P. aeruginosa and A. baumannii; conditions: P. aeruginosa MMX 103 (ATCC 27853); CLSI QC ranges shown in parenthesis; cited from earlier work
[11] = E. faecalis MMX 8960, VRE, Lev^R Cip^R Ery^R, read-out: MIC
[12] = E. faecalis MMX 8962, VRE, Lev^R Cip^R Ery^R, read-out: MIC
[13] = E. faecium MMX 485, VRE vanA, Lev^R Cip^R Ery^R, read-out: MIC
[14] = E. faecium MMX 752, VRE vanA, Lev^R Cip^R Ery^R, read-out: MIC
[15] = P. aeruginosa 6322, one value per panel row C-G
[16] = P. aeruginosa 7745, by checkerboard
[17] = P. aeruginosa 8798, by checkerboard
[18] = P. aeruginosa 9108, by checkerboard
[19] = B. cepacia 1793, Meropenem in combination with BisEDT, by checkerboard

CN[C@H](CC(C)C)C(=O)N[C@H]1C(=O)N[C@@H](CC(N)=O)C(=O)N[C@H]2C(=O)N[C@H]3C(=O)N[C@H](C(=O)N[C@H](C(=O)O)c4cc(O)cc(O)c4-c4cc3ccc4O)[C@H](O)c3ccc(c(Cl)c3)Oc3cc2cc(c3O[C@@H]2O[C@H](CO)[C@@H](O)[C@H](O)[C@H]2O[C@H]2C[C@](C)(N)[C@H](O)[C@H](C)O2)Oc2ccc(cc2Cl)[C@H]1O [vancomycin, reference compound]
MIC [1]: 1 µg/mL (≈ 0.69 µM)
MIC [2]: > 64 µg/mL
MIC ([2]; E. faecalis MMX 8960, VRE, Lev^R Cip^R Ery^R): >64 µg/mL
MIC ([2]; E. faecalis MMX 8962, VRE, Lev^R Cip^R Ery^R): >64 µg/mL
MIC ([2]; E. faecium MMX 485, VRE vanA, Lev^R Cip^R Ery^R): >64 µg/mL
MIC ([2]; E. faecium MMX 752, VRE vanA, Lev^R Cip^R Ery^R): >64 µg/mL
MIC ([3]; Streptococcus pyogenes, S. pyogenes MMX 3820, ERY^R CLI^R): 0.5 µg/mL (≈ 0.345 µM)
MIC ([3]; Streptococcus pyogenes, S. pyogenes MMX 3919, ERY^R): 0.5 µg/mL (≈ 0.345 µM)
MIC ([3]; Streptococcus pyogenes, S. pyogenes MMX 3929, ERY^R CC^R): 0.5 µg/mL (≈ 0.345 µM)
MIC ([3]; Streptococcus pyogenes, S. pyogenes MMX 5091, ERY^R CC^R): 0.5 µg/mL (≈ 0.345 µM)
CLSI QC range of MIC [4]: (0.5-2) μg/mL
CLSI QC range of MIC [5]: (0.12-0.5) μg/mL

Penicillin
MIC ([6]; S. pneumoniae MMX 880, Lev^R SXT^R CC^R Ery^R Pen^R): 2 µg/mL
MIC ([6]; S. pneumoniae MMX 937, Mem^R SXT^R CC^R Ery^R Per^R): 4 µg/mL
MIC ([6]; S. pneumoniae MMX 3959, CC^R Ery^R): 0.12 µg/mL
MIC ([6]; S. pneumoniae MMX 5440, Mem^R SXT^R CC^R Ery^R Pen^R): 4 µg/mL
MIC ([6]; S. pneumoniae MMX 5445, Mem^R SXT^R CC^R Ery^R Pen^R): 4 µg/mL
MIC ([6]; S. pneumoniae MMX 6837 (ATCC 49619), QC): 0.25 µg/mL
MIC ([6]; S. pneumoniae MMX 8133, Mem^R SXT^R CC^R Ery^R Pen^R): 4 µg/mL
MIC ([3]; S. agalactiae MMX 3741, ERY^R CC^R): 0.03 µg/mL
MIC ([3]; S. agalactiae MMX 3743, ERY^R CC^R): 0.06 µg/mL
MIC ([3]; S. agalactiae MMX 4077, ERY^R CC^R): 0.06 µg/mL
MIC ([3]; S. agalactiae MMX 4079, ERY^R CC^R Pen^R MEM^R): 2 µg/mL
MIC ([3]; S. agalactiae MMX 4086, ERY^R CC^R): 0.06 µg/mL
MIC ([3]; S. pyogenes MMX 3068, Ery^R): ≤0.008 µg/mL
MIC ([3]; S. pyogenes MMX 3820, ERY^R CLI^R): ≤0.008 µg/mL
MIC ([3]; S. pyogenes MMX 3919, ERY^R): ≤0.008 µg/mL
MIC ([3]; S. pyogenes MMX 3929, ERY^R CC^R): ≤0.008 µg/mL
MIC ([3]; S. pyogenes MMX 5091, ERY^R CC^R): ≤0.008 µg/mL
CLSI QC range of MIC [5]: (0.25-1) μg/mL

CC[C@H]1OC(=O)[C@H](C)[C@@H](O[C@H]2C[C@@](C)(OC)[C@@H](O)[C@H](C)O2)[C@H](C)[C@@H](O[C@@H]2O[C@H](C)C[C@H](N(C)C)[C@H]2O)[C@](C)(O)C[C@@H](C)C(=O)[C@H](C)[C@@H](O)[C@]1(C)O [Erythromycin]
MIC ([1]; read-out: MIC): 0.5 µg/mL (≈ 0.681 µM)
MIC [2, 11]: > 64 µg/mL
MIC ([2]; E. faecalis MMX 8961, VRE, Lev^R Cip^R Ery^R, read-out: MIC): > 64 µg/mL
MIC [2, 12]: > 64 µg/mL
MIC [2, 13]: > 64 µg/mL
MIC [2, 14]: > 64 µg/mL
CLSI QC range of MIC [4]: (0.25-1) μg/mL
CLSI QC range of MIC [5]: (0.03-0.12) μg/mL

C[C@@H](O)[C@H]1C(=O)N2C(C(=O)O)=C(S[C@@H]3CN[C@H](C(=O)N(C)C)C3)[C@H](C)[C@H]12 [Meropenem]
FICB [7, 15]: 1
MICB [7, 15]: 16 µg/mL
FICB [7, 16]: 0.25 and 0.5
MICB [7, 16]: 4 µg/mL and 8 µg/mL
FICB [7, 17]: 1
MICB [7, 17]: 32 µg/mL
FICB [7, 18]: 1
MICB [7, 18]: 0.001 µg/mL
MIC ([7]; P. aeruginosa 6977): 8 µg/mL
MIC ([7]; P. aeruginosa 7745): 16 µg/mL
MIC ([7]; P. aeruginosa 8798): 32 µg/mL
FICB ([8]; B. cenocepacia 548, FIC of Meropenem (Drug B) in combination with BisEDT): 0.5 and 1
MICB ([8]; B. cenocepacia 548, MIC of Meropenem (Drug B) in combination with BisEDT): 2 µg/mL and 4 µg/mL
MIC ([8]; B. cenocepacia 548): 4 µg/mL
FICB ([8]; B. cenocepacia 813, FIC of Meropenem (Drug B) in combination with BisEDT): 0.5 and 1
MICB ([8]; B. cenocepacia 813, MIC of Meropenem (Drug B) in combination with BisEDT): 1 µg/mL and 2 µg/mL
MIC ([8]; B. cenocepacia 813): 2 µg/mL
FICB ([8]; B. cepacia 546, Meropenem in combination with BisEDT, by checkerboard): 1 and 2
FICB [8, 19]: 2 and 4
MICB [8, 19]: 8 µg/mL and 16 µg/mL
FICB ([8]; B. multivorans 1795, FIC of Meropenem (Drug B) in combination with BisEDT): 1
MICB ([8]; B. multivorans 1795, MIC of Meropenem (Drug B) in combination with BisEDT): 4 µg/mL
MIC ([1]; read-out: MIC): 0.06 µg/mL (≈ 0.156 µM)
MIC [2, 11]: 8 µg/mL (≈ 20.9 µM)
MIC [2, 12]: 2 µg/mL (≈ 5.22 µM)
MIC [2, 13]: > 64 µg/mL
MIC [2, 14]: > 64 µg/mL
MIC, CLSI QC range [9]: (0.008-0.06) μg/mL
MIC, CLSI QC range [10]: (0.25-1) μg/mL
CLSI QC range of MIC [4]: (0.03-0.12) μg/mL
CLSI QC range of MIC [5]: (0.06-0.25) μg/mL
